Data published in publication PMC3606118, “Salvianolic Acid A, a Novel Matrix Metalloproteinase-9 Inhibitor, Prevents Cardiac Remodeling in Spontaneously Hypertensive Rats” (PLoS ONE, 2013).
Where two headings read alike, the source gives them in different places.

Columns and labels:
[1] = test system: H9c2 cells overexpressing MMP-9 (pDEST-MMP9); test: Transwell migration of H9c2 cells overexpressing MMP-9; type: cell-based, Rat; settings: pDEST-MMP9 untreated 157.4±10.2, pDEST 74.6±8.9
Experimental: Transwell assay was employed to evaluate effects of SalA on neonatal cardiac fibroblast migration induced by MMP-9 CD. Twenty thousand cells in 200 µL culture medium containing various concentrations of SalA were loaded onto PET track-etched membrane in modified Boyden chambers (BD Falcon Cell Culture Insert, BD), and same medium containing MMP-9 CD (200 nmol/L) was added to the lower side of the migration chamber. After incubating for 24 h, migrated cells (in the lower side of migration chamber) were stained with 0.1% crystal violet and counted with a microscope at 200 X magnification. Five to six view fields were counted on each membrane. Migration is expressed as the mean value of total number of migrated cells per field. DNA cloning using Gateway technology was carried out according to manufacturer’s instructions. Full-length MMP-9 cDNA (MGC-12688) was first subcloned into entry vector pDONR^TM221, followed by recombination reaction between the attL-containing pDONR^TM221 vector and attR-containing destination pDEST vector (Invitrogen, Carlsbad, CA, USA). […] Stable H9c2 cell line was generated by selection with 2 mg/mL G418 (denoted as pDEST-MMP9) and maintained in 0.75 mg/mL G418, and expression of MMP-9 was evaluated using zymography assay. […]

[2] = test system: spontaneously hypertensive rats (SHR); type: in vivo; settings: for HW/BW (heart weight divided by body weight): 0 mg 4.37±0.08; for collagen volume fraction: 0 mg/kg 4.61±0.31
Experimental: 2-month old male SHR rats were given rodent chow containing 8% NaCl 4 weeks before SaA treatment to the end of the experiment. Rats were divided into four groups (20 per group) and were injected intraperitoneally with saline or SalA everyday at the indicated dose for 4 weeks. The four groups were named as SalA (0 mg/kg), SalA (2.5 mg/kg), SalA (5 mg/kg), SalA (10 mg/kg) basing on the dose of SalA, respectively.
After ketamine-xylazine anesthesia (ketamine: xylazine, 60∶5 mg/kg, intramuscularly), heart, liver and kidney samples from experimental animals were fixed with 4% neutral-buffered paraformaldehyde for 24 h. Specimens were paraffin-embedded, sliced at 5 µm, and stained with haematoxylin and eosin. After staining, the sections were rinsed with distilled water, dehydrated, and mounted with Permount. Photomicrographs were taken using an Olympus BX51 microscope plus Olympus DP71 CCD camera (Olympus Corporation). Software Image-Pro Plus version 6.0 was used and approximately 150 cells per heart were measured to determine the average myocyte circumference. Paraffin-embedded slices were also stained with 0.1% picric sirius red (Sigma-Aldrich Inc, St Louis, USA) for fibrillar collagen. Collagen volume fraction (CVF) was expressed as a percentage of the total area of the field occupied by collagen staining.

[3] = test system: neonatal cardiac fibroblast; test: Multiplex cytokine assay (Procarta) in cardiac fibroblast supernatants; type: cell-based, Wistar rats; settings: 1 or 10 µmol/L SalA, 24 h
Experimental: Primary cardiac fibroblast was obtained from neonatal rats and National Institutes of Health (NIH) Guide for the Care and Use of Laboratory Animals was followed throughout. Wistar rats (2–4 day old) were sacrificed by cervical dislocation; ventricles were minced and digested with 0.1% trypsin at 37°C for 8 min. The liberated cells were collected by centrifugations; non-digested chunk materials were further digested in 0.1% trypsin for an additional 8 min. This digestion procedure was repeated 3–4 times. All the liberated cells were pelleted by centrifugation at 1,000 rpm for 10 min, re-suspended in DMEM containing 10% fetal bovine serum (FBS), and cultured in a 100-mm noncoated culture flask at 37°C with 5% CO2 for 2 h. Adherent cardiac fibroblasts were collected and maintained in DMEM supplemented with 10% FBS, 100 U/mL penicillin, 100 µg/mL streptomycin [12]. Cardiac fibroblasts were treated by vehicle (Con); 200 nmol/L MMP-9 CD (MMP-9); 200 nmol/L MMP-9 CD plus 1 µmol/L SalA [MMP-9/SalA(1)]; or 200 nmol/L MMP-9 CD plus 10 µmol/L SalA [MMP-9/SalA(10)] for the following research. All the detections were conducted after 24 h treatment.
Procarta cytokine profiling kit (Panomics, CA, USA) was used to simultaneously detect 3 different rat cytokines in the cell culture supernatants, according to manufacturer’s instruction. Briefly, 50 µL antibody beads were added to each well of the Filter plate, washed with Wash buffer. Fifty microliter cell culture supernatant was then added to each well, incubated for at least 1 h at room temperature, and washed with Wash buffer. Afterwards, 25 µL per well of the Detection Antibody was added and the Filter plate was shaken at 500 rpm for 30 min at room temperature. After adding Sreptavidin-PE, the signals were detected using a Luminex 200 instrument (Bio-Rad, CA, USA). The cytokines included in the present study were intercellular adhesion molecule (ICAM), interleukin-6 (IL-6), tumor necrosis factor-α (TNF-α and soluble vascular cell adhesion molecule-1 (sVCAM-1).

MMP-9 CD = biological target: T1, MMP-9 CD (Homo sapiens, UniProt P14780, DEL217-390); test: MMP-9 inhibition assay (thiopeptolide, enzyme kinetic analysis); type: biochemical
T1 construct: corresponding to residues 107–216 and 391–444; made in house
T1 sequence (P14780 with tags, fused parts or gaps DEL217-390 limits assumed): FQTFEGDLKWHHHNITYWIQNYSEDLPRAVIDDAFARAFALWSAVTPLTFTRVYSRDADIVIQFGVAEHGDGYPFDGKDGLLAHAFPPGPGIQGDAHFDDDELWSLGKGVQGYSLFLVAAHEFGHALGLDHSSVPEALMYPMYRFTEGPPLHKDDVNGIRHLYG
Experimental: Phenolic acids at the indicated concentrations were incubated with the reaction mixtures contained MMP-9 CD (15 nmol/L) and 5,5′-dithiobis-(2-nitrobenzoic acid) (1 mmol/L) at 4°C for 30 min. The reaction was initiated by the addition of thiopeptolide (Ac-Pro-Leu-Gly-S-Leu-Leu-Gly-OEt). Hydrolysis of thiopeptolide was monitored at 412 nm using Benchmark Plus™ microplate spectrophotometer (Bio-Rad) at room temperature. Kinetic analysis of phenolic acids against MMP-9 CD was calculated using double reciprocal plots of 1/V versus 1/[thiopeptolide]. The slope of every double reciprocal plot is the Km ^app/Vmax of enzyme at different compound concentration. Secondary plot was drawn through Km ^app/Vmax versus compound concentration. Km ^app is apparent value of Km; Ki is inhibition constant; Ki was calculated using the equation Ki = [Km/Vmax][compound]/(Km ^app/Vmax –Km/Vmax).

[4] = 2.5 mg/kg i.p. everyday 4 weeks

O=C(/C=C/c1ccc(O)c(O)c1/C=C/c1ccc(O)c(O)c1)O[C@H](Cc1ccc(O)c(O)c1)C(=O)O [SalA, salvianolic acid A]
migrated cells ([1]; 1 µmol/L SalA): 84.4±17.0 cells per field
migrated cells ([1]; 10 µmol/L SalA): 42.3±8.9 cells per field
HW/BW (heart weight divided by body weight) [2, 4]: 4.36 ± 0.05 mg/g
collagen volume fraction [2, 4]: 4.48±0.29%
HW/BW (heart weight divided by body weight) ([2]; 5 mg/kg i.p. everyday 4 weeks): 4.37 ± 0.08 mg/g
collagen volume fraction ([2]; 5 mg/kg i.p. everyday 4 weeks): 3.04±0.16%
HW/BW (heart weight divided by body weight) ([2]; 10 mg/kg i.p. everyday 4 weeks, p<0.05): 4.10 ± 0.08 mg/g
collagen volume fraction ([2]; 10 mg/kg i.p. everyday 4 weeks): 2.58±0.17%
cardiomyocyte size (myocyte circumference) ([2]; SalA treatment versus SHR, p<0.001): significantly down-regulated
ICAM secretion induced by MMP-9 CD [3]: inhibition
IL-6 secretion induced by MMP-9 CD [3]: inhibition
TNF-α secretion induced by MMP-9CD [3]: No significant inhibitory effect
sVCAM-1 secretion induced by MMP-9 CD [3]: inhibition
inhibition mode on MMP-9 (MMP-9 CD; double reciprocal plots): competitively
Ki (MMP-9 CD; spectrophotometric enzyme kinetic assay, thiopeptolide substrate): 5.74 ± 1.15 µM
